Experimental findings from ChEMBL document CHEMBL1201862, “PubChem BioAssay data set” (2004) are described below.

One may read the IC50 as the midpoint of a concentration-inhibition curve. The term AC50 denotes the concentration giving half of the maximal activity seen. The term EC50 denotes the concentration needed to bring the measured effect to its halfway point. In general, CC50 refers to the concentration at which the toxic effect on the cells reaches its halfway point.

Test [1] is described as follows: Late stage assay provider results from the probe development effort to identify inhibitors of the Plasmodium falciparum M18 Aspartyl Aminopeptidase (M18AAP): radiolabel-based cell-based dose response assay to identify compounds that inhibit P. falciparum growth in RBCs, Set 2.. The test is classed as functional.
A short description of test [2]: L. donovani amastigote growth inhibition, dose response, axenic amastigotes, plate reader, cherry pick (AID 651891). The class given is functional, cell-based. The conditions noted are these: Leishmania donovani.
Test [3] can be described thus: Inhibition of T. cruzi Tulahuen strain amastigotes in L-6 muscle cells Measured in Cell-Based and Microorganism Combination System Using Plate Reader - 2138-03_Inhibitor_Dose_CherryPick_Activity. The conditions noted are these: Rattus norvegicus, L6. The class given is functional.
Test [4] can be described thus: growth inhibition of intracellular T. cruzi, dose response, cell-based, plate reader, dry powder samples (AID 651845). The test is classed as functional.
Test [5] in a line: Inhibition of Plasmodium falciparum NF54 Measured in Cell-Based System Using Plate Reader - 2138-11_Inhibitor_Dose_CherryPick_Activity. The class given is functional.
Test [6] in a line: T. cruzi growth inhibition in host cells, dose response, cell-based, plate reader, dry powder, set 2 (AID 652275). The test is classed as functional.
Test [7] can be described thus: T. b. rhodesiense proliferation inhibition, dose response, STIB900 strain, plate reader, cherry pick (AID 651893). The test is classed as functional, cell-based. The settings on record: Trypanosoma brucei.
Test [8] in a line: intracellular Trypanosoma cruzi inhibitors in host cells – cell-based, plate reader, cherry-pick samples, set 3, dose response (AID 651818).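 Also: compounds incubated with infected cells for about four days.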 The class given is functional.
A short description of test [9]: cytotoxicity in L-6 rat myocytes, dose response, cytotoxicity control, cell-based, plate reader, cherry-pick (AID 651896). The test is classed as functional.
The nature of test [10]: T. cruzi intracellular amastigote growth inhibition, dose response, imaging, CA-I/72 strain, bovine embryo skeletal muscle, dry powder (AID 651885). The class given is functional, cell-based.
Test [11] can be described thus: NIH/3T3 fibroblast cytotoxicity, dose response, cytotoxicity control for T. cruzi growth inhibitor project, cell-based, cherry-pick samples, set 2 (AID 651817). The conditions noted are these: NIH3T3. The test is classed as functional.
Test [12] can be described thus: HeLa 2N DNA content increase, dose response, cell-based, IC50 (AID 1117349). The test is classed as functional.
Test [13] in a line: cells. The class given is functional, cell-based. The conditions noted are these: INS-1E.
A short description of test [14]: HeLa 4N DNA content increase, dose response, cell-based, IC50 (AID 1117351). The test is classed as functional.
Test [15] in a line: Dose-response inhibition of insulin secretion in a rat insulinoma line at 5 mM glucose (AID 1117331). The class given is functional, cell-based. The settings on record: INS-1E.
Test [16] deals with ATP-dependent translocase ABCB1 (Homo sapiens, UniProt P08183). The experiment in a line: ABCB1 efflux pump inhibitor potency, dose response, Jurkat-DNR cells, JC-1, flow cytometry (AID 1689). The test is classed as functional. A general note: A flow cytometer gives signals particle by particle.
A short description of test [17]: cells.
In test [18] the target is Broad substrate specificity ATP-binding cassette transporter ABCG2 (Homo sapiens, UniProt Q9UNQ0). The experiment in a line: ABCG2 efflux pump inhibitors, dose response, Ig-MXP3 cells, flow cytometry (AID 1690). The class given is functional.
Test [19] is described as follows: HepG2 cell cytotoxicity, dose response, cytotoxicity control, ATP luminescence, cherry-pick, set 6 (AID 1053125). The test is classed as functional, cell-based.
Test [20] in a line: inhibitors of intracellular T. cruzi replication, confirmation, NIH3T3 host cells, beta-gal luminescence (AID 2044).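 Also: intracellular parasites grown in NIH/3T3 mouse fibroblasts as host cells; luminescent beta-galactosidase reporter signal from transgenic T. cruzi replicating inside host cells; inhibitors lower the luminescence signal.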 The class given is functional, cell-based.
Test [21] can be described thus: cytotoxicity toward NIH3T3 fibroblasts, dose response, counter-screen, cell-based, ATP luminescence, mouse fibroblasts (AID 2010).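 Also: cells exposed to compound for about 90 hours before reading.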 The class given is functional.
Test [22] is described as follows: cells. The settings on record: HEK293.
In test [23] the target is T1, Calpain-2 catalytic subunit (Sus scrofa, UniProt P43367).
T1 sequence (P43367 whole entry): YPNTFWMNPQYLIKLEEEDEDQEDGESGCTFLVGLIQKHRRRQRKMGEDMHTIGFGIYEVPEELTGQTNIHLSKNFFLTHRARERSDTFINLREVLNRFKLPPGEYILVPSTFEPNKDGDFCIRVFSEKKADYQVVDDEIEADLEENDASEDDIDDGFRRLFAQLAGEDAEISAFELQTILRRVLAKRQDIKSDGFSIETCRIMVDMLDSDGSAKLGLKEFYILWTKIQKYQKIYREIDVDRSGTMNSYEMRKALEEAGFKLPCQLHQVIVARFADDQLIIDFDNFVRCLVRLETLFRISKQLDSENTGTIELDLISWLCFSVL
The experiment in a line: pig calpain II inhibitor potency, dose response, biochemical, fluorogenic peptide substrate (AID 1420). The class given is functional.

A short description of test [24]: PAX2 cell-based inhibition, dose response, selectivity assay for PAX8 inhibitor project, plate reader, dry powder samples (AID 743048).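 Also: HEK293 cells carrying a WT1 promoter luciferase reporter driven by expressed Pax2; potency is for inhibition of Pax2 driven reporter signal.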 The test is classed as functional.
Test [25] can be described thus: PAX5 activity inhibitors, dose response, selectivity assay for PAX8 inhibitor project, cell-based, plate reader, dry powder samples (AID 743047).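 Also: HEK293 cells carrying a Pax5 driven CD19 promoter luciferase reporter; potency of inhibitors that lower reporter luminescence.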 The test is classed as functional.
A short description of test [26]: cytotoxicity dependent on PAX8, dose response, cell-based, plate reader, dry powder (AID 743049). The test is classed as functional.
The target in the next test is Paired box protein Pax-8 (Homo sapiens, UniProt Q06710). Briefly: inhibitors of PAX8-driven TPO luciferase reporter, dose response, RMG-I cells, cherry-pick (AID 687027).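 Also: luciferase reporter driven by Pax8 target thyroperoxidase promoter measured by SteadyGlo luminescence.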 The class given is functional, cell-based. Background: In a reporter assay the amount or activity of a reporter protein is the signal.
The subject of test [27] is Vero. The experiment in a line: cells. The test is classed as functional, cell-based. The conditions noted are these: Chlorocebus sabaeus.
Test [28] relates to Vero. The experiment in a line: cells. The class given is functional. The settings on record: Chlorocebus sabaeus.
Test [29] deals with NAD-dependent protein deacylase sirtuin-5, mitochondrial (Homo sapiens, UniProt Q9NXA8). The experiment in a line: SIRT5 deacylase inhibitors, dose response, biochemical, fluorescence imaging, cherry-pick, set 6 (AID 720597).
Test [30] concerns the target Glutathione-S-transferase (Schistosoma japonicum, UniProt Q26513). Briefly: biotin-GST/anti-GST TR-FRET signal inhibitors, dose response, artefact control for Vif-APOBEC3G degradation inhibitor project, biochemical (AID 1117362). The test is classed as functional. In general terms: TR-FRET usually uses a lanthanide donor and a delayed reading to cut background.
Test [31] has as its target T2, Fibrinogen beta chain (Homo sapiens, UniProt P02675). Briefly: Fluorescence polarization-based biochemical high throughput dose response assay to identify inhibitors that disrupt the binding of a cyclic peptide (Tn6) to the fibrin proteolytic product D-Dimer and fragment E complex [DD(E )].
Test [32] deals with T2, Fibrinogen beta chain. Briefly: Fluorescence polarization-based biochemical high throughput dose response assay to identify inhibitors that disrupt the binding of a cyclic peptide (Tn7) to the fibrin proteolytic product D-Dimer and fragment E complex [DD(E )].

Structures are written as SMILES. Counter-ions that a name gives are not always drawn. The source made the active and inactive calls.

T2 sequence (P02675 whole entry, the tested form may be a part): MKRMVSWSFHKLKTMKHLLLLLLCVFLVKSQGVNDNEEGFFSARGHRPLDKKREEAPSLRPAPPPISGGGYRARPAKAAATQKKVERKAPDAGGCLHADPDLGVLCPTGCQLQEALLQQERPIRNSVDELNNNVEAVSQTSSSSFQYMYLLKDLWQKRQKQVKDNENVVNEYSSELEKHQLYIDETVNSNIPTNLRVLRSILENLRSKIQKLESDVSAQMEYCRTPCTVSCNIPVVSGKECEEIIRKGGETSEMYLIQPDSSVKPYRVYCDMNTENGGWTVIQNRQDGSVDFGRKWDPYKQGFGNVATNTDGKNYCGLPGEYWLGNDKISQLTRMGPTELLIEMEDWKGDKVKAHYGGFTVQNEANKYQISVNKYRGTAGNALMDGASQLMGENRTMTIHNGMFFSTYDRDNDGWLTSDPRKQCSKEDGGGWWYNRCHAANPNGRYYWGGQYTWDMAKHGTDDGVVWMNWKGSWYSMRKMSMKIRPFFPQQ
Sequence of ATP-dependent translocase ABCB1 (P08183 whole entry): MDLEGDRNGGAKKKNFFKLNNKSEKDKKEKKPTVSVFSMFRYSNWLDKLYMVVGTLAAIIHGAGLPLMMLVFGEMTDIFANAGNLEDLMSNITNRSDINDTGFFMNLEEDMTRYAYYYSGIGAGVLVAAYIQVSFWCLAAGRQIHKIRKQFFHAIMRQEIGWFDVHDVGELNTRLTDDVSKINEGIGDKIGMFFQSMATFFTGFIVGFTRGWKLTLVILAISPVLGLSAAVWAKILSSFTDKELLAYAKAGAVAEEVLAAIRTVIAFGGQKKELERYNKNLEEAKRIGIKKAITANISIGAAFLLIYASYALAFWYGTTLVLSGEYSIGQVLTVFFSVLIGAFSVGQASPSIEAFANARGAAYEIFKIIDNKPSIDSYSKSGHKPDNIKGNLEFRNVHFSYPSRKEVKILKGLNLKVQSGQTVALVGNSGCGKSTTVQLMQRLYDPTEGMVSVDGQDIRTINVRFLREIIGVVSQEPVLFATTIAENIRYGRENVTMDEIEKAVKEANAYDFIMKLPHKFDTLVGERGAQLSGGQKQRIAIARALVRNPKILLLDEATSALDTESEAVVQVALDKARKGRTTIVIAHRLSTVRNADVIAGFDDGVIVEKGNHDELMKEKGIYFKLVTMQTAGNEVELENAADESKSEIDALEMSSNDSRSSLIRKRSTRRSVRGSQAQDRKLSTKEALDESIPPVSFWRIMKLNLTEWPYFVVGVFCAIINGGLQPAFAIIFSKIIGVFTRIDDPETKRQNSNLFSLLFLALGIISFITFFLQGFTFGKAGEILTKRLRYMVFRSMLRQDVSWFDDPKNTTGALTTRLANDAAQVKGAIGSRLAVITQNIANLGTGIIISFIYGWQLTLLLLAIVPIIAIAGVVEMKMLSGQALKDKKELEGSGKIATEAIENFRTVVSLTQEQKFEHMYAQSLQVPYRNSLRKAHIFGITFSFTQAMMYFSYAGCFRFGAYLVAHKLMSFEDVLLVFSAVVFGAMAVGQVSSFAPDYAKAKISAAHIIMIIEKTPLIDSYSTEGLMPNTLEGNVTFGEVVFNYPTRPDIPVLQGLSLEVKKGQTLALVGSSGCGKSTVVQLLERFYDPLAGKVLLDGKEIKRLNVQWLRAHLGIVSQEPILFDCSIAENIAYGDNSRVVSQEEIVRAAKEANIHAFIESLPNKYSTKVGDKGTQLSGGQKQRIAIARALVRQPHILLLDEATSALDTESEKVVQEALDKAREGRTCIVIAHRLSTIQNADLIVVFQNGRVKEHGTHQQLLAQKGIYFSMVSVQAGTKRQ
Sequence of Paired box protein Pax-8 (Q06710 whole entry): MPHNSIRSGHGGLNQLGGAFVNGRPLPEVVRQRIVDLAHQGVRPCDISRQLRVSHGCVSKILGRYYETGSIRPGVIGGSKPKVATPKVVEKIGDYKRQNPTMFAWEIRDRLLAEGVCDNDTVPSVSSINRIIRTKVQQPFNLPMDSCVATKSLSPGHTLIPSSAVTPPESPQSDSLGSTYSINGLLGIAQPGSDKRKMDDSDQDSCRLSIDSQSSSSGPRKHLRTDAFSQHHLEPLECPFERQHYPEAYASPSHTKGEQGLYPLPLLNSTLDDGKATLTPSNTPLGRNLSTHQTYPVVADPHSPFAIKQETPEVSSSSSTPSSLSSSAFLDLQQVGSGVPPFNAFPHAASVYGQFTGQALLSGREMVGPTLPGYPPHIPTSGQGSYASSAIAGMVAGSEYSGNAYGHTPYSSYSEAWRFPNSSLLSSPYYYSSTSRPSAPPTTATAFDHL
Sequence of NAD-dependent protein deacylase sirtuin-5, mitochondrial (Q9NXA8 whole entry): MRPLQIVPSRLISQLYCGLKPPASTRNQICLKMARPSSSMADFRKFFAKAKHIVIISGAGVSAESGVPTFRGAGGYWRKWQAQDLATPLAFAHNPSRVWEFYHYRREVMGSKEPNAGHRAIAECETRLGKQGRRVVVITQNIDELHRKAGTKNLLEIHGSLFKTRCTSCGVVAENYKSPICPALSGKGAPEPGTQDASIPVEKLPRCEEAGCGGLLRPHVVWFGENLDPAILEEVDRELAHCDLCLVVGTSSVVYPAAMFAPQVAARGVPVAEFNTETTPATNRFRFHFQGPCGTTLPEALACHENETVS
Sequence of Glutathione-S-transferase (Q26513 whole entry, the tested form may be a part): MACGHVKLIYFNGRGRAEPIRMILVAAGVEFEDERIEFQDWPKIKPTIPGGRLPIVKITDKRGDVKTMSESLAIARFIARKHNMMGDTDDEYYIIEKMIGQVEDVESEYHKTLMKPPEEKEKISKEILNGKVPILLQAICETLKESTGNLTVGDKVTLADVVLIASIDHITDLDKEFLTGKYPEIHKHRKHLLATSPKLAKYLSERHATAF
Sequence of Broad substrate specificity ATP-binding cassette transporter ABCG2 (Q9UNQ0 whole entry): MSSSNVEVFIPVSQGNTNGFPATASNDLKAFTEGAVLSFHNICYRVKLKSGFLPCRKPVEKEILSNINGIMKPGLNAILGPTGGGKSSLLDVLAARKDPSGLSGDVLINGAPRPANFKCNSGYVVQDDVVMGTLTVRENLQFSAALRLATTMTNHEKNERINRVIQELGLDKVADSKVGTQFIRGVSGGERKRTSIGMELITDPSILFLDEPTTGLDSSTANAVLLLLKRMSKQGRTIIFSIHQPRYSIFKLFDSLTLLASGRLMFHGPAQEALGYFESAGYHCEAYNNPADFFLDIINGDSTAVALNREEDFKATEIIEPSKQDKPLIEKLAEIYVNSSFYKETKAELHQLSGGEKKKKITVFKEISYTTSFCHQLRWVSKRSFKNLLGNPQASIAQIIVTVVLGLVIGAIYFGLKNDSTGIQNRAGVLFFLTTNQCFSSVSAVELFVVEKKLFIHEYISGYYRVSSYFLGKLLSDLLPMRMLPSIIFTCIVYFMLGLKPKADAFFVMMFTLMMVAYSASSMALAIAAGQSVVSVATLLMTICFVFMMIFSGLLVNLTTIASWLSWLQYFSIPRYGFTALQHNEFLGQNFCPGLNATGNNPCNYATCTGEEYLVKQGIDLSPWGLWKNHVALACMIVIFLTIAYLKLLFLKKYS

As for `COc1cc(Br)c(CCNc2c3ccccc3nc3ccccc23)cc1OC`, in test [1], the IC50 is 0.3 µM (active).

On to `C[C@@H]1CN([C@H](C)CO)C(=O)c2cccc(NC(=O)c3ccncc3)c2O[C@H]1CN(C)Cc1ccc2c(c1)OCO2`, for which the IC50 in test [2] was > 100 µM (inactive); in test [3] it was 5.79 µM (inactive); in [5], 5.79 µM (inactive); in test [7], 6.86 µM (inactive); in [9], > 100 µM (inactive); in [10] it was 0.049 µM (active). The AC50 in test [4] was 0.311 µM (active); in [6] it was 0.0187 µM (active); in test [8] it was 0.08 µM (active); in test [11], 39 µM (inactive).

As for `CCN(CCCCOC(=O)c1ccc(OC)c(OC)c1)C(C)Cc1ccc(OC)cc1` (stereo not drawn) [MEBEVERINE HYDROCHLORIDE], the IC50 in test [12] is > 10 µM (inactive); in the test “cells [13]”, > 33.3 µM (inactive); in test [14] it was > 10 µM (inactive); in [15], 1.95 µM (active).

For the compound `CCOC(=O)c1c(NC(=O)CSc2ncccn2)sc2c1CCN(Cc1ccccc1)C2`, the 50% effective concentration (EC50) in [16] is 9.93 µM (active); in test [18], 1.88 µM (active); in test [20] it was 3.07 µM (active); in [21], > 60 µM (not active). Also, the AC50 in the test “cells [17]” was > 70 µM (inactive); in test [19], > 52 µM (inactive); in “cells [22]”, > 52 µM (inactive). Also, in test [23], the IC50 is 5.71 µM (not active).

On to `O=C1/C(=C/c2ccccc2)SC(=S)N1CC(=O)N1CCCCC1c1cccnc1` (stereo not drawn), for which the AC50 is 70.7 µM (active) in test [24], 61.9 µM (active) in [25], 42.1 µM (active) in test [26] and 4.37 µM (active) at Paired box protein Pax-8. Further, the IC50 with Vero [27] was > 25 µM (active). Besides, in the test on Vero [28], the 50% cytotoxic concentration (CC50) was 14.6 µM (active).

Turning to `COc1ccc(S(=O)(=O)Nc2ccc3c(c2)C(=O)N([C@@H](C)CO)C[C@@H](C)[C@H](CN(C)S(=O)(=O)c2ccccc2)OCCCC[C@H](C)O3)cc1`, the AC50 in [29] is > 30 µM (inactive).

For `Cn1cnnc1SC/C(O)=C(\C#N)c1nc2ccccc2[nH]1`, the IC50 in test [30] is > 100 µM (active).

`CCOC(=O)C1=Nc2cccc3c(O)ccc1c23`: the IC50 at Fibrinogen beta chain [31] is 22.3 µM (inactive); at Fibrinogen beta chain [32], > 9.25 µM (active).
